Among the data in patent publication US8133898B2, “Renin inhibitors” (Takeda Pharmaceutical Company Limited, priority 2008, dated 2012) are IC50 values, retold here.

In one test the target is T1, Recombinant human renin (Homo sapiens, UniProt P00797).
T1 construct: with trypsin, and isolate the active form (residues 67-406); made in house; host or cells: FreeStyle 293-F cells (transient expression of pcDNA3.1(+)/hREN)
T1 sequence (P00797 67-406): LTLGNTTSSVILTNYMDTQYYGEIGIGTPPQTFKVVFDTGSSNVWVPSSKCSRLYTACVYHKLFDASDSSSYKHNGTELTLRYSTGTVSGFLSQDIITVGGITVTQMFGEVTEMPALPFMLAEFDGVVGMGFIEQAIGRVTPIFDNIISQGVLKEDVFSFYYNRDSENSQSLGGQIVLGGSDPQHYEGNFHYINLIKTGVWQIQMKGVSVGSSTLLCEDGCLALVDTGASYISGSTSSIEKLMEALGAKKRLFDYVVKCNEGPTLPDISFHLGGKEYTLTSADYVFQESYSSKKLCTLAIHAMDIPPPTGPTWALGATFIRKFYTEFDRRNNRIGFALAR
The test is described as follows: in vitro enzymatic activity of renin inhibitors (fluorescence). It is filed as biochemical. The note with it: fluorogenic peptide substrate. An excerpt:
Test compounds in varying concentrations may be reacted with recombinant human renin in the presence of substrate, e.g., QXL520-γ-Abu-Ile-His-Pro-Phe-His-Leu-Val-Ile-His-Thr-Lys (HiLyteFluo488)-Arg-OH (Anaspec, San Jose, Calif.). The reaction can be followed kinetically using fluorescence (excitation λ=485 nm; emission λ=538 nm). Inhibition constants (IC50) may be calculated by non-linear curve fitting of the compound concentrations and fluorescence intensities to the standard IC50 equation.
Solutions of test compounds in varying concentrations (≦2 mM final concentration) are prepared in dimethyl sulfoxide (DMSO) and then diluted into assay buffer comprising 50 mM Hepes, 1 mM EDTA, 1 mM DTT, 0.1 mg/ml BSA, 0.01% Brij35, pH 7.4. Alternatively, the assay can be performed with a high BSA concentration, wherein the buffer contains an additional 2% BSA.
Recombinant human renin (3 nM final concentration) is added to the dilutions and pre-incubated with the compounds for 10 minutes at 37° C. As described in Examples A-C above, human renin can be obtained by expressing preprorenin (residue 1-406) in mammalian cells, treating the prorenin (residues 24-406) contained in the culture supernatant with trypsin, and isolate the active form (residues 67-406). After pre-incubation, the reaction is initiated with 1 μM of substrate QXL520-γ-Abu-Ile-His-Pro-Phe-His-Leu-Val-Ile-His-Thr-Lys (HiLyteFluo488)-Arg-OH (Anaspec, San Jose, Calif.). The final DMSO in the assay is 5%. The total volume of the reaction mixture is 20 μL, which can be placed on Greiner 384-well small volume plates.
Renin activity may be determined via fluorescence (excitation λ=485 nm; emission λ=538 nm), e.g., on a Molecular Devices SPECTROmax GEMINI XPS. The fluorescence intensity is determined upon the addition of substrate and determined again after incubation at 37° C. for one hour. The fluorescence intensity of a blank (no inhibition) using vehicle alone is also determined. Renin activity is linearly proportional to the change in fluorescence observed (final—initial).
The percent inhibition of renin at a given compound concentration is defined as: 100%×[1−(Fcompound/Fblank)] where Fcompound is the observed fluorescence at a given concentration of test compound and Fblank is the observed fluorescence in the presence of vehicle alone.
The pIC50 value (negative log of the molar concentration of the compound that produces 50% inhibition) of a test compound is calculated by non-linear least squares curve fitting of the equation: Percent Inhibition=100%/(1+(10−pIC50/10 log [I])) to percent inhibition versus compound concentration. The 50% inhibitory concentration (IC50) of a test compound is calculated by raising 10 to the negative pIC50 (10-pIC50).

The target of the next test is Human DPP-IV (Homo sapiens, UniProt P27487). Description: in vitro enzymatic activity of inhibitors against DPP-IV. Type of test: biochemical. The note with it: AP-AFC substrate. How it is done:
Solutions of test compounds in varying concentrations ([…]) were prepared in dimethyl sulfoxide (DMSO) and then diluted into assay buffer comprising: 20 mM Tris, pH 7.4; 20 mM KCl; and 0.1 mg/mL BSA. Human DPP-IV (0.1 nM final concentration) was added to the dilutions and pre-incubated for 10 minutes at ambient temperature before the reaction was initiated with A-P-7-amido-4-trifluoromethylcoumarin (AP-AFC; 10 μM final concentration). The total volume of the reaction mixture was 10-100 μL depending on assay formats used (384 or 96 well plates). The reaction was followed kinetically (excitation λ=400 nm; emission λ=505 nm) for 5-10 minutes or an end-point was measured after 10 minutes. Inhibition constants (IC50) were calculated from the enzyme progress curves using standard mathematical models.

Chain of Human DPP-IV (P27487 whole entry): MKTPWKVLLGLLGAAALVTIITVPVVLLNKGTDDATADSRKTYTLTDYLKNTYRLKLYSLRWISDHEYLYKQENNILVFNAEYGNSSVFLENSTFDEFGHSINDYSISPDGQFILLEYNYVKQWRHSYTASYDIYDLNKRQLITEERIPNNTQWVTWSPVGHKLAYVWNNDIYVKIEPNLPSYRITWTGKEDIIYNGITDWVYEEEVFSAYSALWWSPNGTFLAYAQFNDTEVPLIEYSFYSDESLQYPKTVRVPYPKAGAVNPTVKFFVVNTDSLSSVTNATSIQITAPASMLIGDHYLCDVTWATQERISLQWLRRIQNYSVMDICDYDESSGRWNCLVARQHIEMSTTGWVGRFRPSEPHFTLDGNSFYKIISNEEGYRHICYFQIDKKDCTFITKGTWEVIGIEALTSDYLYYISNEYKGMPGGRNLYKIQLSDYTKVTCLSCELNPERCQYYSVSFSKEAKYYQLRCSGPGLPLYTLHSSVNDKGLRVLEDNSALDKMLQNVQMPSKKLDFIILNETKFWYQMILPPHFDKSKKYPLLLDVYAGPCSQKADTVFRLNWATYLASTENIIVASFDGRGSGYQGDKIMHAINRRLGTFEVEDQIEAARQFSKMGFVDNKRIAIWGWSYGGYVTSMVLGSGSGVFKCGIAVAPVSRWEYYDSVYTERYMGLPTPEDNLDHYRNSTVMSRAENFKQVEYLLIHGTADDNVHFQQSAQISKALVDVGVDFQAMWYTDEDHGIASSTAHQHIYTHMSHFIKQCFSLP

Regarding “6-(aminomethyl)-5-(2-bromo-5-fluorophenyl)-7-(4-(ethylamino)phenylthio)-1,3-dimethylpyrido[2,3-d]pyrimidine-2,4(1H,3H)-dione [Compound 69]”, the results for the IC50 on Recombinant human renin and against Human DPP-IV were 10 to 100 µM and below 1 µM, respectively.
Taken in the same sequence, the figures for `CCOc1cc(OCC)cc(-c2c(CN)c(NCc3ccc4ccccc4c3)nc3c2c(=O)n(C)c(=O)n3C)c1` [Compound 56, 6-(Aminomethyl)-5-(3,5-diethoxyphenyl)-1,3-dimethyl-7-(naphthalen-2-ylmethylamino)pyrido[2,3-d]pyrimidine-2,4(1H,3H)-dione] were above 100 µM and above 100 µM.
Take `COc1cc(OC)cc(-c2c(CN)c(NCc3ccc4ccccc4c3)nc3c2c(=O)n(C)c(=O)n3C)c1` [Compound 57, 6-(aminomethyl)-5-(3,5-dimethoxyphenyl)-1,3-dimethyl-7-(naphthalen-2-ylmethylamino)pyrido[2,3-d]pyrimidine-2,4(1H,3H)-dione]: the figures for the IC50 at Recombinant human renin and against Human DPP-IV were 1 to 10 µM and above 100 µM, respectively.
On to `CN(C)C(=O)c1cccc(-c2c(CN)c(NCc3ccc4ccccc4c3)nc3c2c(=O)n(C)c(=O)n3C)c1` [Compound 58, 3-(6-(Aminomethyl)-1,3-dimethyl-7-(naphthalen-2-ylmethylamino)-2,4-dioxo-1,2,3,4-tetrahydropyrido[2,3-d]pyrimidin-5-yl)-N,N-dimethylbenzamide], for which, on Recombinant human renin, the IC50 was in the range of 1 to 10 µM.
`Cn1c(=O)c2c(-c3cccc4c3OC(C)(C)C4)c(CN)c(NCc3ccc4ccccc4c3)nc2n(C)c1=O` [Compound 59, 6-(Aminomethyl)-5-(2,2-dimethyl-2,3-dihydrobenzofuran-7-yl)-1,3-dimethyl-7-(naphthalen-2-ylmethylamino)pyrido[2,3-d]pyrimidine-2,4(1H,3H)-dione]: the IC50 at Recombinant human renin lay within 1 to 10 µM; on Human DPP-IV, 10 to 100 µM.
`COc1ccc(Oc2cccc(-c3c(CN)c(NCc4ccc5ccccc5c4)nc4c3c(=O)n(C)c(=O)n4C)c2)cc1` [Compound 60, 6-(Aminomethyl)-5-(3-(4-methoxyphenoxy)phenyl)-1,3-dimethyl-7-(naphthalen-2-ylmethylamino)pyrido[2,3-d]pyrimidine-2,4(1H,3H)-dione]: the IC50 on Recombinant human renin lay within 1 to 10 µM; against Human DPP-IV, 10 to 100 µM.
Turning to `COc1ccc(-c2c(CN)c(NCc3ccc4ccccc4c3)nc3c2c(=O)n(C)c(=O)n3C)cc1OC` [Compound 61, 6-(Aminomethyl)-5-(3,4-dimethoxyphenyl)-1,3-dimethyl-7-(naphthalen-2-ylmethylamino)pyrido[2,3-d]pyrimidine-2,4(1H,3H)-dione], the IC50 at Recombinant human renin lay in the range of 1 to 10 µM; against Human DPP-IV, 10 to 100 µM.
Taken in the same sequence, the figures for `Cn1c(=O)c2c(-c3nc4ccccc4s3)c(CN)c(NCc3ccc4ccccc4c3)nc2n(C)c1=O` [Compound 62, 6-(Aminomethyl)-5-(benzo[d]thiazol-2-yl)-1,3-dimethyl-7-(naphthalen-2 ylmethylamino)pyrido[2,3-d]pyrimidine-2,4(1H,3H)-dione] were above 100 µM and above 100 µM.
Taken in the same sequence, the figures for `Cn1c(=O)c2c(-c3ccccc3Oc3ccccc3)c(CN)c(NCc3ccc4ccccc4c3)nc2n(C)c1=O` [Compound 63, 6-(Aminomethyl)-1,3-dimethyl-7-(naphthalen-2-ylmethylamino)-5-(2-phenoxyphenyl)pyrido[2,3-d]pyrimidine-2,4(1H,3H)-dione] were 1 to 10 µM and 1 to 10 µM.
Taken in the same sequence, the figures for `CCOc1ccc(OCC)c(-c2c(CN)c(NCc3ccc4ccccc4c3)nc3c2c(=O)n(C)c(=O)n3C)c1` [Compound 64, 6-(aminomethyl)-5-(2,5-diethoxyphenyl)-1,3-dimethyl-7-(naphthalen-2-ylmethylamino)pyrido[2,3-d]pyrimidine-2,4(1H,3H)-dione] were 1 to 10 µM and above 100 µM.
`CCCOc1ccc(OCCC)c(-c2c(CN)c(NCc3ccc4ccccc4c3)nc3c2c(=O)n(C)c(=O)n3C)c1` [Compound 65, 6-(Aminomethyl)-5-(2,5-dipropoxyphenyl)-1,3-dimethyl-7-(naphthalen-2-ylmethylamino)pyrido[2,3-d]pyrimidine-2,4(1H,3H)-dione]: the results for the IC50 at Recombinant human renin and against Human DPP-IV were 10 to 100 µM and above 100 µM, respectively.
As to `Cn1c(=O)c2c(-c3ccc(CN)cc3)c(CN)c(N)nc2n(C)c1=O` [Compound 66, 7-Amino-6-(aminomethyl)-5-(4-(aminomethyl)phenyl)-1,3-dimethylpyrido[2,3-d]pyrimidine-2,4(1H,3H)-dione], the results for the 50% inhibitory concentration (IC50) on Recombinant human renin and on Human DPP-IV were 10 to 100 µM and above 100 µM, respectively.
On to `CCCOc1cc(OCCC)cc(-c2c(CN)c(NCc3ccc4ccccc4c3)nc3c2c(=O)n(C)c(=O)n3C)c1` [Compound 67, 6-(Aminomethyl)-5-(3,5-dipropoxyphenyl)-1,3-dimethyl-7-(naphthalen-2-ylmethylamino)pyrido[2,3-d]pyrimidine-2,4(1H,3H)-dione], for which the IC50 at Recombinant human renin was 10 to 100 µM; against Human DPP-IV it was above 100 µM.
Taken in the same sequence, the figures for `CC(=O)Nc1ccc(Sc2nc3c(c(-c4cc(F)ccc4Br)c2CN)c(=O)n(C)c(=O)n3C)cc1` [Compound 68, N-(4-(6-(aminomethyl)-5-(2-bromo-5-fluorophenyl)-1,3-dimethyl-2,4-dioxo-1,2,3,4-tetrahydropyrido[2,3-d]pyrimidin-7-ylthio)phenyl)acetamide] were 10 to 100 µM and below 1 µM.
Taken in the same sequence, the figures for `COc1ccc(F)cc1-c1c(CN)c(NCc2ccc3ccccc3c2)nc2c1c(=O)n(C)c(=O)n2C` [Compound 70, 6-(aminomethyl)-5-(5-fluoro-2-methoxyphenyl)-1,3-dimethyl-7-(naphthalen-2-ylmethylamino)pyrido[2,3-d]pyrimidine-2,4(1H,3H)-dione] were 1 to 10 µM and below 1 µM.
`COc1cccc(CNc2nc3c(c(-c4cc(F)ccc4OC)c2CN)c(=O)n(C)c(=O)n3C)c1` [Compound 71, 6-(aminomethyl)-5-(5-fluoro-2-methoxyphenyl)-7-(3-methoxybenzylamino)-1,3-dimethylpyrido[2,3-d]pyrimidine-2,4(1H,3H)-dione]: the IC50 on Recombinant human renin lay in the range of 1 to 10 µM.
Regarding `COc1ccc(F)cc1-c1c(CN)c(NCc2ccc(-n3cccn3)cc2)nc2c1c(=O)n(C)c(=O)n2C` [Compound 72, 7-(4-(1H-pyrazol-1-yl)benzylamino)-6-(aminomethyl)-5-(5-fluoro-2-methoxyphenyl)-1,3-dimethylpyrido[2,3-d]pyrimidine-2,4(1H,3H)-dione], the IC50 was 1 to 10 µM at Recombinant human renin and below 1 µM against Human DPP-IV.
In the case of `CCC(CC)Nc1nc2c(c(-c3cc(F)ccc3OC)c1CN)c(=O)n(C)c(=O)n2C` [Compound 73, 6-(aminomethyl)-5-(5-fluoro-2-methoxyphenyl)-1,3-dimethyl-7-(pentan-3-ylamino)pyrido[2,3-d]pyrimidine-2,4(1H,3H)-dione], the IC50 on Recombinant human renin is 1 to 10 µM.
Regarding `COc1ccc(F)cc1-c1c(CN)c(NCCCc2ccccc2)nc2c1c(=O)n(C)c(=O)n2C` [Compound 75, 6-(aminomethyl)-5-(5-fluoro-2-methoxyphenyl)-1,3-dimethyl-7-(3-phenylpropylamino)pyrido[2,3-d]pyrimidine-2,4(1H,3H)-dione], the IC50 on Recombinant human renin was 1 to 10 µM; on Human DPP-IV, below 1 µM.
